These results are taken from US12351571B2, “Substituted quinoxaline compounds as inhibitors of FGFR tyrosine kinases” (ARRAY BIOPHARMA INC., priority 2018, dated 2025).

One assay concerns the target phosphorylated FGFR3 (Homo sapiens (Human), UniProt P22607). In words: FGFR Enzyme Binding Assay (HTRF tracer displacement), FGFR3. The conditions noted are these: 5 nM phosphorylated FGFR3, 60 minute incubation at 22° C.; read-out: FGFR3 Enz Binding IC50. (In general: Time-resolved FRET reads energy transfer from a long-lived donor to a nearby acceptor.)
The target in another assay is FGFR1 (Homo sapiens (Human), UniProt P11362). As to the kind of experiment: LC/MS FGFR1 kobs assay (covalent modification). The format is biochemical. The conditions noted are these: 500 nM FGFR1, 3 μM compound.
The target of assay [1] is T1, FGFR3 (Homo sapiens (Human), UniProt P22607). In words: LC/MS FGFR3 kobs assay (covalent modification). The format is biochemical. The note with it: 500 nM FGFR3, 3 μM compound.
Target sequence in this assay (P22607 449-759): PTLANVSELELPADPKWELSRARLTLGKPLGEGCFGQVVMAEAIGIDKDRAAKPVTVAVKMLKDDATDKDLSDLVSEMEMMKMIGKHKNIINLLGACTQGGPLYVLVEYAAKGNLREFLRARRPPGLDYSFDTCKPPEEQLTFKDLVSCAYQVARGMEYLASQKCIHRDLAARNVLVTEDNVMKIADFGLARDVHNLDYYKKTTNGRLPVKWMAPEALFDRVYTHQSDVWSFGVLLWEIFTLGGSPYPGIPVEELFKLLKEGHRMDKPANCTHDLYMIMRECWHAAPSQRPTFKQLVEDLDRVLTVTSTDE
For a further assay, the target named is human wild type FGFR1 (Homo sapiens (Human), UniProt P11362). In words: FGFR1 pERK Cell Assay. The format is cell-based. The note with it: HEK-293 cells, 1 hour compound, 100 ng/ml human FGF-acidic; maximum concentration 5 μM.
Assay [2] has as its target T1, FGFR3. In words: FGFR Enzyme Activity Assay (LanthaScreen TR-FRET), FGFR3. The format is biochemical. The conditions noted are these: 25 μM ATP, 10 minute incubation; read-out: FGFR3 Enz FRET IC50.
Target sequence in this assay (P22607 397-806): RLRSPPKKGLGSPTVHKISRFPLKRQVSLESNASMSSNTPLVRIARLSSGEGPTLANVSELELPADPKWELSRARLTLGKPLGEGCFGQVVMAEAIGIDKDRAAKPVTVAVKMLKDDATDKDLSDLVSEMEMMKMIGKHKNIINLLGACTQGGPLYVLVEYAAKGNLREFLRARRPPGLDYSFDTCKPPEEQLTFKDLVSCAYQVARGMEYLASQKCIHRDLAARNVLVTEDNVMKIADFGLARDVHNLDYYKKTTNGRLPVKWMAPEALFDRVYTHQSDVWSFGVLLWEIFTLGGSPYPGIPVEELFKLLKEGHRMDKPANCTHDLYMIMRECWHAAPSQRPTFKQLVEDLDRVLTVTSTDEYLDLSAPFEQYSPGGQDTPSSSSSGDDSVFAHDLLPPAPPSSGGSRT

FGFR1, sequence (P11362 458-765): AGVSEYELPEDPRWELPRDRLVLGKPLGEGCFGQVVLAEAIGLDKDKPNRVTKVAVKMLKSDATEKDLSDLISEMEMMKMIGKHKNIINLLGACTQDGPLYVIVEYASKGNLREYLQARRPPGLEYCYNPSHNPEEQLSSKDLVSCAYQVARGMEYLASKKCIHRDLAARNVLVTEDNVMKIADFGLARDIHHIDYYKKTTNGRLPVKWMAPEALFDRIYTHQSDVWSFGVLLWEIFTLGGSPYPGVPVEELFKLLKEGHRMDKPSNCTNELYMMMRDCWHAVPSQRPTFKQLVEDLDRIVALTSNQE
human wild type FGFR1, sequence (P11362 22-822): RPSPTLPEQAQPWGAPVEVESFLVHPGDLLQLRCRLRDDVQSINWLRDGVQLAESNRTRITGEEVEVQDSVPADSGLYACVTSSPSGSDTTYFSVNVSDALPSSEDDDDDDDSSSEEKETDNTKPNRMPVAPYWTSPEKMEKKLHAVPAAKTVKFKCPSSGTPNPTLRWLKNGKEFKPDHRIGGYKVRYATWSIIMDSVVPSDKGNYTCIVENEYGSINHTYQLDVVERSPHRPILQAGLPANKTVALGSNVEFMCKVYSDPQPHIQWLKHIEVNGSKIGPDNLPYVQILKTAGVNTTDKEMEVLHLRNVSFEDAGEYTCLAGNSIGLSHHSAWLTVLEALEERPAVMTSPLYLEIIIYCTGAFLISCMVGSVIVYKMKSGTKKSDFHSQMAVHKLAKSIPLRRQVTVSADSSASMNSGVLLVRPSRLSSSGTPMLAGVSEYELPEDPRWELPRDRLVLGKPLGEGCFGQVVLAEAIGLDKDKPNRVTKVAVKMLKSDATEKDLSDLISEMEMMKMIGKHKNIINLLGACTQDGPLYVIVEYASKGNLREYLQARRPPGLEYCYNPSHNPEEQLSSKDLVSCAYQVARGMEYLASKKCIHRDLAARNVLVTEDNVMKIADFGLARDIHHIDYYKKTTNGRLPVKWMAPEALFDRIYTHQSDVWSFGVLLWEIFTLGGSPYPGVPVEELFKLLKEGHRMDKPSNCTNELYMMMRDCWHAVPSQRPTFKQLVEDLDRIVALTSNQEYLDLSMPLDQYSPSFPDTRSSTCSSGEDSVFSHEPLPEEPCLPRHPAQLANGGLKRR
phosphorylated FGFR3, sequence (P22607 449-759): as the sequence (P22607 449-759) above

`C#CCN(c1cc(OC)cc(OC)c1)c1ccc2ncc(-c3cnn(C4CCN(C(=O)C5(F)CN(C(=O)/C=C/CN(C)C)C5)CC4)c3)nc2c1` [Example 28, (E)-1-(3-(4-(4-(7-((3,5-dimethoxyphenyl)(prop-2-yn-1-yl)amino)quinoxalin-2-yl)-1H-pyrazol-1-yl)piperidine-1-carbonyl)-3-fluoroazetidin-1-yl)-4-(dimethylamino)but-2-en-1-one]: the IC50 at phosphorylated FGFR3 was 2 nM; on human wild type FGFR1, 34 nM; on FGFR3 [2], 6 nM. For the same molecule, at FGFR1, the “FGFR1 Enz kobs” value came out at 0.01569 min⁻¹. In addition, the “FGFR3 Enz kobs” value at FGFR3 [1] amounted to 0.078 min⁻¹.
As for `C=CC(=O)N1CC(C(=O)N2CCN(c3ccc(-c4cnc5ccc(Nc6cc(OC)cc(OC)c6)cc5n4)cn3)CC2)C1` [Example 5, 1-(3-(4-(5-(7-((3,5-dimethoxyphenyl)amino)-quinoxalin-2-yl)pyridin-2-yl)piperazine-1-carbonyl)azetidin-1-yl)-prop-2-en-1-one], the figures for the IC50 at phosphorylated FGFR3, against human wild type FGFR1 and on FGFR3 [2] were 59 nM, 2690 nM and 272 nM, respectively. In addition, the “FGFR1 Enz kobs” value on FGFR1 was 0.0011 min⁻¹. In addition, the “FGFR3 Enz kobs” value at FGFR3 [1] is 0.01486 min⁻¹.
As to `C=CC(=O)N1CC(O)(C(=O)N2CCC(n3cc(-c4cnc5ccc(Nc6cc(OC)cc(OC)c6)cc5n4)cn3)CC2)C1` [Example 26, 1-(3-(4-(4-(7-((3,5-dimethoxyphenyl)amino)quinoxalin-2-yl)-1H-pyrazol-1-yl)piperidine-1-carbonyl)-3-hydroxyazetidin-1-yl)prop-2-en-1-one], the IC50 is 6 nM at phosphorylated FGFR3, 1650 nM against human wild type FGFR1 and 14 nM on FGFR3 [2]. Moreover, the “FGFR1 Enz kobs” value at FGFR1 worked out at 0.00288 min⁻¹. The “FGFR3 Enz kobs” value at FGFR3 [1] is 0.01414 min⁻¹.
With `C=CC(=O)N1CC(F)(C(=O)N2CCC(n3cc(-c4cnc5ccc(Nc6cc(OC)cc(OC)c6)cc5n4)cn3)CC2)C1` [Example 4, 1-(3-(4-(4-(7-((3,5-dimethoxyphenyl)amino)-quinoxalin-2-yl)-1H-pyrazol-1-yl)piperidine-1-carbonyl)-3-fluoro-azetidin-1-yl)prop-2-en-1-one], the IC50 at phosphorylated FGFR3 turned out to be 3 nM; against human wild type FGFR1, 170 nM; on FGFR3 [2] it was 10 nM. Besides, the “FGFR1 Enz kobs” value on FGFR1 was 0.00632 min⁻¹. Further, the “FGFR3 Enz kobs” value at FGFR3 [1] turned out to be 0.03901 min⁻¹.
With `COc1cc(Nc2ccc3ncc(-c4ccc(N5CCN(C(=O)C6CN(C(=O)/C=C/CN(C)C)C6)CC5)nc4)nc3c2)cc(OC)c1` [Example 6, (E)-1-(3-(4-(5-(7-((3,5-dimethoxyphenyl)amino)-quinoxalin-2-yl)pyridin-2-yl)piperazine-1-carbonyl)azetidin-1-yl)-4-(dimethylamino)but-2-en-1-one], the figures for the IC50 at phosphorylated FGFR3, on human wild type FGFR1 and on FGFR3 [2] were 9 nM, no less than 5000 nM and 161 nM, respectively. In addition, the “FGFR1 Enz kobs” value at FGFR1 came to 0.00259 min⁻¹. The “FGFR3 Enz kobs” value at FGFR3 [1] was found to be 0.04816 min⁻¹.

Usually IC50 stands for the point on the concentration scale where inhibition reaches its midpoint.
